Measured values from ChEMBL document CHEMBL1201862, “PubChem BioAssay data set” (2004).
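In this assay, cells in 96-well plates receive the compound at five concentrations for 48 hours. Endpoints are linearly interpolated between the surrounding concentrations. At the GI50, growth is halved.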 Calls of active or inactive are those of the source. Cut-off read from the data, not from the text of the source: active = GI50 up to about 1.1 µM and inactive = higher.

What was measured:
Assay in all cases: inhibition of tumour cell growth, NCI panel, 48 h
DMS-114 = tested on: DMS-114
DMS-273 = tested on: DMS-273
HOP-18 = tested on: HOP-18
KM-20L2 = tested on: KM-20L2
LXFL 529 = tested on: LXFL 529
M19-MEL = tested on: M19-MEL
SNB-78 = tested on: SNB-78
RXF 631 = tested on: RXF 631
XF498 = tested on: XF498

SMILES	GI50 (DMS-114)	GI50 (DMS-273)	GI50 (HOP-18)	GI50 (KM-20L2)	GI50 (LXFL 529)	GI50 (M19-MEL)	GI50 (SNB-78)	GI50 (RXF 631)	GI50 (XF498)
CCN(CC)CC[n+]1ccc2c(C)c3[nH]c4ccc(O)cc4c3c(C)c2c1	0.767 µM (active)	2.92 µM (inactive)	4.23 µM (inactive)	8.47 µM (inactive)	2.5 µM (inactive)	1.21 µM (inactive)	3.5 µM (inactive)	–	–
COc1ccc(/C(Cl)=C(\C=O)c2ccc(F)cc2)cc1OC	14.4 µM (inactive)	27.4 µM (inactive)	12.9 µM (inactive)	16.2 µM (inactive)	11.5 µM (inactive)	21 µM (inactive)	15.3 µM (inactive)	19.9 µM (inactive)	–
N#CC(/C(CCC(=O)Nc1ccc(Cl)cc1)=N/NC(=O)c1cc2ccccc2cc1O)c1ccccc1 (centres undefined)	25.4 µM (inactive)	–	21.5 µM (inactive)	28.6 µM (inactive)	43 µM (inactive)	33.7 µM (inactive)	66.1 µM (inactive)	–	54.8 µM (inactive)
CCOc1ccc(/C(C=O)=C(\Cl)c2ccc(OC)cc2)cc1	40.5 µM (inactive)	> 100 µM (inactive)	42.3 µM (inactive)	> 100 µM (inactive)	> 100 µM (inactive)	> 100 µM (inactive)	> 100 µM (inactive)	–	> 100 µM (inactive)
CCCCNCC(=O)O[C@]1(CC)C(=O)OCc2c1cc1n(c2=O)Cc2cc3ccccc3nc2-1	0.121 µM (active)	< 0.01 µM (active)	0.44 µM (active)	1.24 µM (inactive)	3.21 µM (inactive)	0.63 µM (active)	2.43 µM (inactive)	1.7 µM (inactive)	0.305 µM (active)
COC(=O)C1=NC(=S)NC(c2ccccc2)C1c1nc2ccccc2s1 (centres undefined)	> 100 µM (inactive)	> 100 µM (inactive)	> 100 µM (inactive)	> 100 µM (inactive)	> 100 µM (inactive)	> 100 µM (inactive)	> 100 µM (inactive)	> 100 µM (inactive)	–
COc1ccc(/C=C2\CCC(Cc3ccccc3)(CN(C)C)C2=O)cc1 (centres undefined)	18.2 µM (inactive)	15.2 µM (inactive)	> 100 µM (inactive)	23.4 µM (inactive)	36.1 µM (inactive)	28.4 µM (inactive)	35.5 µM (inactive)	–	–
O=C1NC(Cc2ccc(O)cc2)C(=O)N2CCCC12 (centres undefined)	> 100 µM (inactive)	> 100 µM (inactive)	> 100 µM (inactive)	> 100 µM (inactive)	> 100 µM (inactive)	> 100 µM (inactive)	> 100 µM (inactive)	> 100 µM (inactive)	–
CCOC(=O)C(C)NC(=O)NC12CC3CC(CC(F)(C3)C1)C2 (centres undefined)	> 100 µM (inactive)	> 100 µM (inactive)	–	> 100 µM (inactive)	> 100 µM (inactive)	61.1 µM (inactive)	27.9 µM (inactive)	–	27.4 µM (inactive)
N#CC(C#N)=C1NC(=O)C(c2ccccc2)C(=O)N1 (centres undefined)	> 100 µM (inactive)	> 100 µM (inactive)	–	> 100 µM (inactive)	> 100 µM (inactive)	> 100 µM (inactive)	> 100 µM (inactive)	> 100 µM (inactive)	> 100 µM (inactive)
O=C(NCCCCCCNC(=O)OCCSCCn1cc(C(=O)NC(=O)OCc2ccccc2)c(=O)[nH]c1=O)OCCSCCn1cc(C(=O)NC(=O)OCc2ccccc2)c(=O)[nH]c1=O	> 100 µM (inactive)	> 100 µM (inactive)	–	> 100 µM (inactive)	> 100 µM (inactive)	> 100 µM (inactive)	> 100 µM (inactive)	> 100 µM (inactive)	> 100 µM (inactive)
O=c1[nH]c(=O)n([C@H]2C[C@@H](CO)[C@@H](O)C2)cc1I	> 100 µM (inactive)	> 100 µM (inactive)	> 100 µM (inactive)	> 100 µM (inactive)	> 100 µM (inactive)	> 100 µM (inactive)	> 100 µM (inactive)	–	–
Cc1ccc(Nc2nc3c(s2)C(=O)c2ccccc2C3=O)c(C)c1	8.59 µM (inactive)	19.6 µM (inactive)	4.57 µM (inactive)	37.3 µM (inactive)	15 µM (inactive)	2.37 µM (inactive)	15.2 µM (inactive)	–	17.3 µM (inactive)
O=C(O)CCC(=O)Oc1ccc(O)c2c1CCCC2=O	> 100 µM (inactive)	> 100 µM (inactive)	> 100 µM (inactive)	> 100 µM (inactive)	> 100 µM (inactive)	> 100 µM (inactive)	> 100 µM (inactive)	–	0.316 µM (active)
Cn1ccnc1CCc1ccc(Cl)cc1Cl	56.8 µM (inactive)	> 100 µM (inactive)	> 100 µM (inactive)	> 100 µM (inactive)	> 100 µM (inactive)	> 100 µM (inactive)	> 100 µM (inactive)	> 100 µM (inactive)	–
COC(=O)c1cc(-c2cccn2C)c2c(c1C(=O)OC)c1ccccc1n2C	40.3 µM (inactive)	34.1 µM (inactive)	> 100 µM (inactive)	–	40.2 µM (inactive)	–	> 100 µM (inactive)	80.4 µM (inactive)	> 100 µM (inactive)
CCCCCCCCC[C@@H]1CC(=O)OCC2OC(O[C@H](CCCCCCCCC)CC(=O)OCC3OC(O[C@H](CCCCCCCCC)CC(=O)OCC4OC(O1)C(O)C(O)C4O)C(O)C(O)C3O)C(O)C(O)C2O (some centres undefined)	8.89 µM (inactive)	8.65 µM (inactive)	< 0.01 µM (active)	6.46 µM (inactive)	6.53 µM (inactive)	4.42 µM (inactive)	17.3 µM (inactive)	–	7.74 µM (inactive)
C[C@H]1CC[P+](Cc2ccccc2)(c2ccccc2)C1 (some centres undefined)	23 µM (inactive)	> 100 µM (inactive)	> 100 µM (inactive)	93.5 µM (inactive)	26.4 µM (inactive)	26.8 µM (inactive)	–	–	< 0.01 µM (active)
Cc1ccc(-n2nc(C(OC3OC(CO)C(O)C(O)C3O)C(O)CO)c3nc4cc(C)c(C)cc4nc32)cc1 (centres undefined)	> 100 µM (inactive)	–	–	> 100 µM (inactive)	> 100 µM (inactive)	> 100 µM (inactive)	> 100 µM (inactive)	> 100 µM (inactive)	> 100 µM (inactive)
COC(=O)C(C(=O)C(=O)Nc1nnc(S)[nH]1)c1csc(-n2nc(-c3ccccc3)cc2-c2ccccc2)n1 (centres undefined)	–	> 100 µM (inactive)	–	> 100 µM (inactive)	> 100 µM (inactive)	> 100 µM (inactive)	> 100 µM (inactive)	–	–
COCCOCOC(C)(C)[C@H](CCOC(C)=O)O[Si](c1ccccc1)(c1ccccc1)C(C)(C)C	12.6 µM (inactive)	5.3 µM (inactive)	30.3 µM (inactive)	18.7 µM (inactive)	7.33 µM (inactive)	13.1 µM (inactive)	22.9 µM (inactive)	13.4 µM (inactive)	–
COc1ccc2nc(-c3ccc(O)cc3)ccc2c1	> 100 µM (inactive)	–	> 100 µM (inactive)	> 100 µM (inactive)	> 100 µM (inactive)	> 100 µM (inactive)	97.1 µM (inactive)	–	–
Cc1cccc(NC(=O)/C(=N\N)C(c2cnc3ccc([N+](=O)[O-])cc3n2)[N+](=O)[O-])c1C (centres undefined)	51.3 µM (inactive)	> 100 µM (inactive)	> 100 µM (inactive)	71.8 µM (inactive)	> 100 µM (inactive)	> 100 µM (inactive)	–	> 100 µM (inactive)	> 100 µM (inactive)
CC1=C2[C@@H](c3ccccc3)C3C=CC2(c2ccccc23)N(C(=O)Nc2cccc3ccccc23)C1=O (some centres undefined)	> 100 µM (inactive)	> 100 µM (inactive)	> 100 µM (inactive)	> 100 µM (inactive)	> 100 µM (inactive)	–	> 100 µM (inactive)	–	> 100 µM (inactive)
C[C@]12CCC(=O)C=C1CC[C@@H]1[C@@H]2C(=O)C[C@@]2(C)[C@H]1CC[C@]2(O)C(=O)CO [CORTISONE]	> 100 µM (inactive)	> 100 µM (inactive)	> 100 µM (inactive)	> 100 µM (inactive)	> 100 µM (inactive)	> 100 µM (inactive)	–	–	> 100 µM (inactive)
CCOC(=O)Nc1ccc2c(c1)N(C(=O)CCN(CC)CC)c1ccccc1S2 [ETHACIZINE]	18.2 µM (inactive)	27 µM (inactive)	42 µM (inactive)	19.3 µM (inactive)	19 µM (inactive)	32.1 µM (inactive)	5.18 µM (inactive)	–	18.1 µM (inactive)
